How the values were obtained:
KRas G12C = KRas G12C (Homo sapiens, UniProt P01116, G12C); test: KRas G12C Probe Occupancy TR-FRET Assay; conditions: His-tagged KRas G12C; inhibitor incubated 5 or 60 minutes (which one applies is not stated); read-out: relative IC50, competition with KRas Probe for binding to and covalently modifying KRas G12C
Text: The purpose of this assay is to measure the ability of an inhibitor to compete with a probe for binding to and covalently modifying KRas G12C at codon 12. The signal is generated by the time-resolved transfer of fluorescence between europium on an antibody bound to KRas G12C Europium-labeled Anti-Histidine Tag Antibody LanthaScreen (the Eu Anti-His antibody) and fluorescent Tracer 647 (Alexa Fluor™) bound to KRas G12C through streptavidin and a biotinylated inhibitor (the “KRas Probe”, see Preparation 59).
Inhibitors are tested in dose response format from 10 mM stocks in 100% DMSO. The Labycyte Echo® 555 is used to dilute and transfer 100 nL per well containing a 10 point, 2.8-fold serial dilution to an assay plate. Two copies of the assay plate are prepared to measure the potency after 5 and 60 minutes incubation of the inhibitor with KRas G12C. His-tagged KRas G12C (20 nM) is added to the plates in assay buffer (20 mM Tris-HCl, pH 7.5, 0.01% TX-100, and 1 mM DTT). After 5 or 60 minutes incubation, 1 μM KRas Probe is added and allowed to covalently modify free KRas G12C for 1 hour. […] After 30 minutes, the fluorescent signal is read on an Envision™ Plate Reader (excitation at 340 nm, tracer emission (em) at […], and antibody emission at 615 nm). […]

[1] = test system: phosphorylation of p-ERK1/2 in H358 cells; test: H358 Cellular Phospho-ERK AlphaLISA; type: cell-based; conditions: NCI-H358; H358 human lung cancer cells, 2 hours incubation; read-out: relative IC50, inhibition of phosphorylation of p-ERK1/2
Text: The purpose of this assay is to measure the ability of test compounds to inhibit the phosphorylation of p-ERK1/2, a downstream effector of KRas in human lung cancer cells H358 (ATCC CRL-5807). Briefly, the AlphaLISA® SureFire® Ultra™ p-ERK 1/2 (Thr202/Tyr204) assay is a sandwich immunoassay for quantitative detection of phospho-ERK 1/2 (phosphorylated on Thr202/Tyr204 in ERK1, or Thr185/Tyr187 in ERK2) in cellular lysates using Alpha Technology (Perkin Elmer Cat #ALSU-PERK-A50K).
H358 cells are plated at 40K cells per well in 100 μL media (RPMI 1640, GIBCO Cat #22400-071) containing 10% FBS (GIBCO Cat #: 10082-147) in a 96 well plate (Costar #3596) and are incubated overnight in humid trays at 37° C., 5% CO2. […] The assay plate is then read on an EnVision™ Plate Reader (Perkin Elmer) using a luminescence program. […]

[2] = target: T1, constitutive RAS GTPase activity in H358 cells (Homo sapiens, UniProt P01116, G12C); test: H358 Cellular Active RAS GTPase ELISA; type: cell-based; conditions: H358 human lung cancer cells, serum free media, 2 hours incubation; read-out: relative IC50, inhibition of constitutive RAS GTPase activity
T1 construct: host or cells: H358 human lung cancer cells
Text: The purpose of this assay is to measure the ability of test compounds to inhibit constitutive RAS GTPase activity in human lung cancer cells H358 (ATCC CRL-5807). The RAS GTPase ELISA kit (Active Motif Cat #52097) contains a 96-well plate pre-coated with glutathione in order to capture a kit-supplied GST-Raf-RBD protein. Activated RAS (GTP-bound) in cell extracts specifically bind to the Raf-RBD. Bound RAS is detected with a primary antibody that recognizes human KRas. A secondary antibody conjugated with HRP recognizes the primary antibody and a development solution provides a chemiluminescent readout.
H358 cells are plated at 80,000 cells/well in 90 μL serum free media (RPMI 1640, GIBCO) and incubated overnight at 37° C./5% CO2. The next morning, 10 μL of serially-diluted (3-fold) test compounds (500 μM top concentration) and 10 μL of controls (Maximum signal wells: 5% DMSO and Minimum signal wells: 500 μM 1-[4-[6-chloro-8-fluoro-7-(3-hydroxy-1-naphthyl)quinazolin-4-yl]piperazin-1-yl]prop-2-en-1-one, WO2015054572 as an inhibitor) are added to the cell plate and incubated for 2 hours at 37° C./5% CO2. Complete Lysis/Binding Buffer is prepared containing Protease Inhibitor cocktail and GST-Raf-RBD and stored on ice. […] The assay plate is then read on an EnVision™ Plate Reader (Perkin Elmer) using a luminescence program. […]

T1 sequence (P01116 1-188 isoform P01116-2 G12C): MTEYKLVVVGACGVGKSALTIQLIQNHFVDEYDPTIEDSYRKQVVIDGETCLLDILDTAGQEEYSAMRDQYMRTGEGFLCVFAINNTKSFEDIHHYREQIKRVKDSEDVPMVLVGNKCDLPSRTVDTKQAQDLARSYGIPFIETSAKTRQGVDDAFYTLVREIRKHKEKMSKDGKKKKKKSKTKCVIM
KRas G12C, sequence (P01116 1-188 isoform P01116-2 G12C): as above

C=CC(=O)N1CCN2C(=O)c3cc(Cl)c(-c4ccc(F)c5sccc45)c(Cl)c3OCC[C@H]2C1 (single isomer, unassigned) [Example 2]
IC50 (KRas G12C): 34 nM | IC50 [1]: 89 nM | IC50 [2]: 326 nM

Source: US12590105B2, “KRas G12C inhibitors” (Eli Lilly and Company, priority 2020, dated 2026)
